± gives the expanded uncertainty stated by the source.
Legend:
[1] = refractive index (Na D-line) (dimensionless); cn = amount concentration of the nth substance listed, in mol/dm3; settings: 101 kPa, Liquid, Standard Abbe refractometry, c1 = 0.2
[2] = cn = amount concentration of the nth substance listed, in mol/dm3; settings: 101 kPa, Liquid, c1 = 0.2; for mass density: Pycnometric method

O=C[C@H](O)[C@@H](O)[C@H](O)[C@H](O)CO [D-glucose] + O
Settings	mass density, 298.15 K [kg/m3]	mass density, 313.15 K [kg/m3]	refractive index, 298.15 K	refractive index, 303.15 K	refractive index, 308.15 K	refractive index, 313.15 K	viscosity, 298.15 K [mPa·s]	viscosity, 303.15 K [mPa·s]	viscosity, 308.15 K [mPa·s]	viscosity, 313.15 K [mPa·s]
[1]	–	–	1.336 ± 0.002	1.335 ± 0.002	1.3349 ± 0.002	1.334 ± 0.002	–	–	–	–
[2]	1010.3 ± 0.3	1005.3 ± 0.4	–	–	–	–	1.01 ± 0.03	0.89 ± 0.02	0.8 ± 0.02	0.7 ± 0.02

Reference: the NIST ThermoML archive (doi:10.1016/j.jct.2005.04.011)
